Data from the OligoGym collection.
“And” between values parts separate entries of the source, which are not always exact repeats. Identical values can stand only once. After the bases stand the sugars from the 5' end (letter, count) and the backbone: PS all phosphorothioate, else s phosphorothioate and o phosphodiester by linkage. Methylation of C is not given here. e = 2'-O-(2-methoxyethyl) (MOE); l = locked nucleic acid (LNA); d = 2'-deoxy (DNA)

Columns and labels:
DGAT2 = details: ASO
SNHG14 = details: ASO, Human Neuronal Cell

Sequence	target mRNA inhibition (DGAT2; HepG2, 0.12 µM)	target mRNA inhibition (DGAT2; HepG2, 2.5 µM)	target mRNA inhibition (DGAT2; HepG2, 10 µM)	further results
GCCAGTGTAGCCAGGTAAGG (sugars e5 d10 e5, PS)	9%	–	–	–
AGGCCCCTTCTGAAGAGGGA (sugars e5 d10 e5, PS)	43%	–	–	–
CCAGGTAAGGCCGTATGCCT (sugars e5 d10 e5, PS)	78% and 76%	18%	20%	target mRNA inhibition (DGAT2; HepG2, 20 µM): 43%
GCTGGATGGGAAAGTAGTCT (sugars e5 d10 e5, PS)	22%	–	–	–
GTTTCCTTTGAAATCCAATG (sugars e5 d10 e5, PS)	–	69% and 68%	90% and 81%	–
ATAACCCACAGACACCCATG (sugars e5 d10 e5, PS)	24%	–	–	–
CAGGTTGTGTGTCTTCACCA (sugars e3 d14 e3, PS)	68%	–	–	–
AGGACCCCGGAGTAGGCGGC (sugars e2 d13 e5, PS)	81%	–	85%	–
CTCCCATTCTTTGAAAGCAA (sugars e5 d10 e5, PS)	–	30%	54%	–
GGTGGTTGCAATGTTGCCAT (sugars e5 d10 e5, PS)	–	90% and 76%	93% and 90%	–
GCATGGAGCTCAGAGACTCA (sugars e2 d13 e5, PS)	77%	–	–	–
GCTTATCCTTGAGGGTCTCA (sugars e5 d10 e5, PS)	–	82% and 77% and 88%	94% and 89% and 95%	–
GCATGGAGCTCAGAGACTCA (sugars e3 d14 e3, PS)	51%	–	–	–
AGGACCCACTGGAGCACTGA (sugars e3 d14 e3, PS)	82%	16%	38%	target mRNA inhibition (DGAT2; HepG2, 20 µM): 53%
GGAGTTCTCGAATATCCCTA (sugars e5 d10 e5, PS)	–	74% and 82% and 85%	90% and 94%	–
AAGGCACCTGTTACTACATG (sugars e5 d10 e5, PS)	–	67%	93%	–
GCTGAGAGAGACAATGAGTA (sugars e5 d10 e5, PS)	54%	–	–	–
AGTTTCGGACCCACTGTGAC (sugars e2 d13 e5, PS)	64%	–	–	–
CCCACAGAAGAGCAAAGGCT (sugars e5 d10 e5, PS)	–	76% and 74%	94% and 92%	–
GGGCACCAGCCCCCAGGTGT (sugars e5 d10 e5, PS)	34%	–	–	–
GTTTACTGTGGCACTAAGCT (sugars e5 d10 e5, PS)	–	57%	84%	–
GCGCAGGACCCCGGAGTAGG (sugars e5 d10 e5, PS)	79%	–	–	–
CCAGGGCCTCCATGTACATG (sugars e3 d14 e3, PS)	86%	–	59%	target mRNA inhibition (DGAT2; HepG2, 20 µM): 41%
ACTGAGATGACCTGTAGCTG (sugars e5 d10 e5, PS)	33%	–	–	–
CTGGACAAGTCCTGCCCATC (sugars e3 d14 e3, PS)	67%	–	–	–
TACCAATAGTTACCTT (sugars l2 d10 l4, PS)	–	–	–	target mRNA inhibition (SNHG14; 0.2 µM): 30%; target mRNA inhibition (SNHG14; 1 µM): 49%
CATTATTATTTAACCTT (sugars l2 d11 l4, PS)	–	–	–	target mRNA inhibition (SNHG14; 0.2 µM): -2%; target mRNA inhibition (SNHG14; 1 µM): 14%
GAAAATCTCAACTACCATT (sugars l2 d1 l2 d10 l4, PS)	–	–	–	target mRNA inhibition (SNHG14; 7.5 µM): 60%
CAACTATTATCTTCTT (sugars l2 d10 l4, PS)	–	–	–	target mRNA inhibition (SNHG14; 0.2 µM): 42%; target mRNA inhibition (SNHG14; 1 µM): 61%
